Reference: article PMC12397098, “3-Monothiopomalidomide, a new immunomodulatory imide drug (IMiD), blunts inflammation and mitigates ischemic stroke in the rat” (GeroScience, 2025)
Read-outs that look alike come from different tables or passages of the source.

Tests used:
[1] = test system: TNF-α in LPS-challenged human PBMCs; assay: TNF-α in media of LPS-challenged human PBMCs; assay type: cell-based; conditions: 10 ng/ml LPS, 24 h, 3-MP 0 to 30 μM, vs LPS alone
Description: Human peripheral blood mononuclear cells (PBMCs), purchased from ATCC (Cat no. PCS-800–011, Lot no. 81215231, Manassas, VA, USA), were washed with ice-cold HBSS (ATCC 30–2213) containing 10% fetal bovine serum (FBS: ATCC 30–2020) and used for the experiment directly. The washed cells were suspended and maintained in RPMI media supplemented with 10% FBS, penicillin 100 U/mL, and streptomycin 100 µg/mL at 37 °C and 5% CO2. Approximately 5 × 10^5 cells were seeded into 24-well plates and allowed to equilibrate for 2 h. Pomalidomide or 3-MP, dissolved in 100% tissue culture grade dimethylsulfoxide (DMSO: Sigma Aldrich, St Louis, MO, USA), was then added to the wells. The final concentrations of drugs were 0.0, 0.6, 1.0, 10, 30, and 60 µM (n = 3–4 for each group). At 1 h after initiation of treatment, the cells were challenged with lipopolysaccharide (LPS, Sigma Aldrich, E.Coli 055:B5, Cat no. L4005-100MG, Lot no. 0000218759, Endotoxin Unit: 500,000 EU/mg, at a concentration of 10 ng/mL), and the media was collected after a further 24 h for evaluation of lactate dehydrogenase (LDH) activity as a marker of drug-induced cellular toxicity and concentrations of nitrite (In Vitro Toxicology Assay Kit, Lactic Dehydrogenase based, Promega, Cat no. G7891, Madison, WI, USA) (Griess Reagent System, Promega, Cat no. G2930) and TNF-α (human TNF-α ELISA MAX™ Deluxe Set Cat no. […]

[2] = Ex vivo plasma stability, human; assay type: in vitro ADME; conditions: 100 μg/ml, 37 °C, 180 min
Description: Ex vivo evaluations of drug plasma and liver microsomal time-dependent breakdown are routinely undertaken to initially characterize the metabolic stability of new pharmacological compounds and were performed by WuXi AppTec (Shanghai, China; Study No. 424847–20,211,214-MMS). Rat and human plasma and liver microsomes were purchased from Xenotech (Sprague Dawley rat, Catalog no. R1000; BioIVT, Westbury, NY) or Corning (mixed human, Catalog no. 452117; Sigma). Rat and human plasma was incubated at 37 °C on a shaker and spiked with 3-MP (100 μg/ml, n = 3). Thereafter, samples were time-dependently (0 to 180 min) removed, immediately frozen (− 80 °C), and subjected to LC–MS/MS analysis at a later time.

[3] = Pharmacokinetics in the rat, I.V. and P.O.; assay type: in vivo
Description: To evaluate the metabolism of 3-MP, ex vivo plasma and liver homogenate studies were performed across species (rat and human), and in vivo pharmacokinetic studies were performed in rats following intravenous (I.V.) and oral (P.O.) administration of 3-MP (5 mg/kg) to time-dependently follow its disappearance from the plasma compartment.
Fig. 5 3-MP pharmacokinetics. 3-MP was administered to rats via the intravenous (I.V.) and oral (P.O.) routes, and time-dependent plasma levels were obtained and subjected to LC–MS/MS analysis (n = 3/group). Pharmacokinetic profile of 3-MP following a 5 mg/kg dose by either the I.V. or P.O route. Time-dependent plasma concentrations of 3-MP (n = 3/group)

[4] = Brain entry in rats (brain and plasma at 5 h); assay type: in vivo; conditions: male, Fischer 344, rat, brain
Description: The animals were euthanized at 5 h post-dosing, and plasma and a brain sample were taken, frozen to − 80 °C, and later assayed for 3-MP by LC–MS/MS.
LC–MS/MS analysis was performed with a Vanquish Flex UHPLC (Thermo Scientific, Waltham MA, USA) and an Orbitrap Exploris 240 mass spectrometer (Thermo Scientific). Samples were separated on a C18 UHPLC column (100 mm × 2.1 mm, 3 μm; Thermo Scientific). The mobile phase A for LC separation was 0.1% formic acid and the mobile phase B was 0.1% formic acid in methanol. The chromatography gradient was initiated at 95% A and 5% B at zero time. This was continued for 1 min and, thereafter, linearly changed to 5% A and 95% B by 9 min. This was then maintained for a further 3 min. The flow rate was 0.3 mL/min, and the injection volume was 2 μl. Mass spectra were acquired using the data-dependent Top 4 MS2 (ddMS2) method with a mass scan (100–1000 m/z) and 120,000 MS resolution.

[5] = target: T1, Serotonin 5-HT1A receptor (Homo sapiens, UniProt P08908); assay: PDSP radioligand binding; conditions: read-out: 3-MP concentration required to induce 50% inhibition of PDSP radioligand binding
T1 construct: NIMH Psychoactive Drug Screening Program (PDSP)
Description: To evaluate potential binding at classical neurological drug targets, 3-MP and 3,6’-DP were submitted to the National Institute on Mental Health (NIMH) Psychoactive Drug Screening Program (PDSP: Univ. N Carolina, Chapel Hill, NC, USA < https://pdspdb.unc.edu/pdspweb/ >) as powdered samples in the provided vials. The materials were then prepared at the PDSP in 10% DMSO, subjected to multiple assay screens, and processed as per the PDSP Assay Protocol Book (Version 3, March 2018). Compounds that exceeded an initial 10 uM binding threshold were then delegated for secondary dose–response analysis. This screen comprised a 45-target comprehensive panel of common brain receptor and transporter drug targets.

[6] = test system: LPS-induced cytokines (TNF-α, IL-6, IL-10, IL-13) in plasma and cerebral cortex; assay: Systemic and brain LPS anti-inflammatory study in rats; assay type: in vivo; conditions: rat, 1 h pre-treatment, 3-MP 13.23 and 26.47 mg/kg I.P., pomalidomide 25 mg/kg I.P., LPS 1 mg/kg I.P., 4 h
[7] = in vitro; conditions: Sprague Dawley, rat, microsomes
[8] = in vitro; conditions: human, microsomes
[9] = iv, rat plasma, I.V. bolus 5 mg/kg

T1 sequence (P08908 whole entry): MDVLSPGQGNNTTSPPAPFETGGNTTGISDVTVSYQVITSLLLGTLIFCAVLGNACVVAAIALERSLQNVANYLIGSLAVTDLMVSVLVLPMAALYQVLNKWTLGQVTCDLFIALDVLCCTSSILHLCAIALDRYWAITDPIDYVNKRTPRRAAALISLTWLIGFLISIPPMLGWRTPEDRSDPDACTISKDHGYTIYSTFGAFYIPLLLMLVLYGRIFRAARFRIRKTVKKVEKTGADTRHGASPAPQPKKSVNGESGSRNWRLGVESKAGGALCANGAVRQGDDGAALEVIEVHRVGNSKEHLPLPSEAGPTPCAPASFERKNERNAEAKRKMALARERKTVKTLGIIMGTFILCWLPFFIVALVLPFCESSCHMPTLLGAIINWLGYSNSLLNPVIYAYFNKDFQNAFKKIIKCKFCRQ

Nc1cccc2c1C(=S)N(C1CCC(=O)NC1=O)C2=O (centres unmarked) [3-MP, 3-Monothiopomalidomide]
TNF-α levels in media [1]: dose-dependently reduced | stability in human plasma [2]: relatively stable | AUC(0-inf) [3, 9]: 15200 ng·h/mL | AUC(0-t) [3, 9]: 15100 ng·h/mL | C0 [3, 9]: 8150 ng/mL | clearance ([3]; plasma, iv, rat, I.V. bolus 5 mg/kg): 5.65 mL/min/kg | Vd ([3]; plasma, iv, rat, I.V. bolus 5 mg/kg, read-out: Vdss): 0.693 L/kg | AUC(0-inf) ([3]; po, rat plasma, P.O. 5 mg/kg): 5860 ng·h/mL | AUC(0-t) ([3]; po, rat plasma, P.O. 5 mg/kg): 5560 ng·h/mL | Cmax ([3]; po, rat plasma, P.O. 5 mg/kg): 1020 ng/mL | T1/2 ([3]; rat plasma, P.O. 5 mg/kg, 5 mg/kg): 3.21 h | half-life ([3]; rat, plasma, iv, 5 mg/kg, rat plasma, I.V. bolus 5 mg/kg): 1.56 h | bioavailability ([3]; rat, plasma, oral, 5 mg/kg, rat, P.O. vs I.V., 5 mg/kg): ~38.5% | half-life ([3]; rat, plasma, po, 5 mg/kg, rat plasma, P.O. 5 mg/kg): 3.2 h | Tmax ([3]; rat, plasma, po, 5 mg/kg, rat plasma, P.O. 5 mg/kg, read-out: Tmax): 1.67 h | Tmax ([3]; rat, plasma, po, 5 mg/kg, rat, oral gavage 5 mg/kg, read-out: time of peak concentration in plasma (converted)): 1.67 h | Kp at 5 h ([4]; ip, 13.25 mg/kg, 13.25 mg/kg I.P., read-out: Brain/plasma ratio): 0.52 | Kp at 5 h ([4]; ip, 26.5 mg/kg, 26.5 mg/kg I.P., read-out: Brain/plasma ratio): 0.61 | Kp at 5 h ([4]; other: I.P. or P.O., 13.25 or 26.50 mg/kg I.P. or P.O., read-out: brain concentrations as % of concomitant plasma levels): 0.51 to 0.61 | Kp at 5 h ([4]; other: I.P. or oral (P.O.), across I.P. and P.O. doses, read-out: brain/plasma concentration ratio): 0.5 to 0.6 | Kp at 5 h ([4]; po, 26.5 mg/kg, 26.5 mg/kg P.O., read-out: Brain/plasma ratio): 0.51 | IC50 [5]: > 10 µM | LPS-induced cytokine changes in plasma and cerebral cortex [6]: significantly mitigated | CLint scaled at 1 μM [7]: < 17.3 mL/min/kg | half-life at 1 μM [7]: > 2.42 h | microsomal CLint at 1 μM [7]: < 9.6 µL/min/mg | CLint scaled at 1 μM [8]: < 8.6 mL/min/kg | half-life at 1 μM [8]: > 2.42 h | microsomal CLint at 1 μM [8]: < 9.6 µL/min/mg
